Test results from ChEMBL document CHEMBL1667857, “Discovery of dual binding site acetylcholinesterase inhibitors identified by pharmacophore modeling and sequential virtual screening techniques” (Bioorg Med Chem Lett, 2011).

Assays:
[1] = target: Cholinesterase (Homo sapiens) (UniProt P06276); assay: Inhibition of BChE by Ellman's method; details: concentration not given here
Acetylcholinesterase = Acetylcholinesterase (Electrophorus electricus, UniProt O42275); assay: Inhibition of electric eel AChE by Ellman's method
[2] = Selectivity index, ratio of IC50 for electric eel AChE to IC50 for BChE

Chain of Acetylcholinesterase (O42275 whole entry): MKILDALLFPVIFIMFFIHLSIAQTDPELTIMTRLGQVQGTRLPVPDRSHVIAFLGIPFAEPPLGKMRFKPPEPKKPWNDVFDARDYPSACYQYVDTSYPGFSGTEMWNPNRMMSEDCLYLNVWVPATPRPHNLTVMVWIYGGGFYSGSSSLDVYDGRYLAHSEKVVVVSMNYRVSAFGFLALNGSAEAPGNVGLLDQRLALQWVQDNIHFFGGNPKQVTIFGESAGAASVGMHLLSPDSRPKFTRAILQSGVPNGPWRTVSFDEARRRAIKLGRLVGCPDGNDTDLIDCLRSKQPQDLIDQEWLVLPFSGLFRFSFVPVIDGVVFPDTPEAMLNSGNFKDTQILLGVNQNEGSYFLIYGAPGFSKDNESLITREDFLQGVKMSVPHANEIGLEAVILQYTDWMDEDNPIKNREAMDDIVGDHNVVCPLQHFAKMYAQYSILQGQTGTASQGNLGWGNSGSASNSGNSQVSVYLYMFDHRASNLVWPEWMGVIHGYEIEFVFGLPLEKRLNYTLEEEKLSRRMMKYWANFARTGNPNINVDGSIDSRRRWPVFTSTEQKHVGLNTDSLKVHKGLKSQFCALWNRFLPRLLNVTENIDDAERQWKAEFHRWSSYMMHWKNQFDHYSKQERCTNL
Chain of Cholinesterase (Homo sapiens) (P06276 whole entry): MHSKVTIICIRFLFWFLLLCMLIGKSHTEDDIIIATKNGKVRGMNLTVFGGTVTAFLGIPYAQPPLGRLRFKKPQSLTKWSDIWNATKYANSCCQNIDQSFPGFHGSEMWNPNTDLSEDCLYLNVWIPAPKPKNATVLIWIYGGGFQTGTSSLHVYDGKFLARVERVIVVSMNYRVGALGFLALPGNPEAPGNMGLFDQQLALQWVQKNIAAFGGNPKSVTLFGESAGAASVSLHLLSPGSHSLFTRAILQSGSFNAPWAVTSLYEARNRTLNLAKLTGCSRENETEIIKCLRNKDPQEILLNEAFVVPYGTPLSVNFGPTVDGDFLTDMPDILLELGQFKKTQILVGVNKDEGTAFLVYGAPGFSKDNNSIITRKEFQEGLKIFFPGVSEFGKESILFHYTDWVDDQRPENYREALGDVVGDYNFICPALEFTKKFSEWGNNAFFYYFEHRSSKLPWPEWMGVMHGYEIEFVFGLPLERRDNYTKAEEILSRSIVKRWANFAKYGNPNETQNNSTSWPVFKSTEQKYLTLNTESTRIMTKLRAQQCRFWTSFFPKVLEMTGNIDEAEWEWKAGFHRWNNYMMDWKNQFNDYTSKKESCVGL

| SMILES | inhibition [1] [%] | IC50 (Acetylcholinesterase) [nM] | Ratio IC50 [2] |
| --- | --- | --- | --- |
| CCOC(=O)c1c(-c2ccc(OC)c(OC)c2)csc1NC(=O)CCN1CCC(C)CC1 | < 10 | 3280 |  |
| CCc1nn(CC(=O)NCCCN2C[C@H](C)C[C@@H](C)C2)c(=O)c2cc3sc(C)cc3n12 |  | 2000 | 698 |
| COc1ccc(Br)cc1C(=O)Nc1ccc(CN2CCCCC2)cc1 |  | 1000 |  |
| CCN(CC)c1ccc(NC(=O)c2nc3nc(C)cc(C(F)F)n3n2)cc1 |  | 1000 |  |
| CCOC(=O)c1c(NC(=O)CCN2CCC(C)CC2)sc2c1C[C@@H](C)CC2 | < 10 | 5990 |  |
| O=C(CN1CCCCC1)Nc1ccc(NC(=O)CN2CCCCC2)c(Cl)c1 |  | 1000 |  |
| Cc1ccc(OCC(=O)Nc2ccc(CN3CCCCC3)cc2)c(C)c1 |  | 1000 |  |
| Cc1cc(N2CCCC2)nc2ccc(NC(=O)CCC(=O)NC3CCCCC3)cc12 |  | 1000 |  |
| CCc1nc2sc3c(NCCN(C)C)ncnc3c2c2c1CCCC2 |  | 1000 |  |
| O=C(C1CCN(c2nnc(N3CCCC3=O)s2)CC1)N1CCCCCC1 |  | 1000 | 342 |
